{"source": "patent US11608319B2", "about": "“Beta-amino acid derivative, kinase inhibitor and pharmaceutical composition containing the same, and method for performing an in vivo related application that benefits from the inhibition of a kinase” (Industrial Technology Research Institute, priority 2019, dated 2023)", "test_system": "Human Trabecular Meshwork (HTM) cells", "assay": "Expression of MYLK-4 in HTM cells by Western blotting", "format": "cell-based", "details": "HTM cells treated overnight with 50 μg/mL dexamethasone", "procedure": "Expression of MYLK-4 in Cells\nHuman Trabecular Meshwork (HTM) cells (Cat. NO. 6590) were obtained from ScienCell Research Laboratories. HTM cells were maintained in Trabecular Meshwork Cell Medium (TMCM) (Cat. NO. 6591). TMCM formulated from 500 mL basal medium, 10 mL FBS (Cat. NO. 0010), 5 mL trabecular meshwork cell growth supplement (TMCGS, Cat. NO. 6592) and 5 mL penicillin/streptomycin solution (P/S, Cat. NO. 503). When the cell growth reached 70-80% saturation, the HTM cells were treated overnight with 50 μg/mL dexamethasone (Cat. NO. 4902, Sigma).\nThe expression of MYLK4 and GAPDH in cell lysates was analyzed by Western blotting method. First, the cells were collected and washed with 1×RIPA (50 mM Tris-HCl, pH 7.4, 150 mM NaCl, 0.25% deoxycholic acid, 0.1% NP-40, 1 mM EDTA, phosphatase inhibitor and protease inhibitor mixture). Next, the cell lysates were separated by SDS-PAGE (sodium dodecyl sulfate polyacrylamide gel electrophoresis) and transferred to PVDF membrane (iBlot™ 2 Transfer Stacks, polyvinylidene fluoride membrane, Invitrogen). Immunoblotting was performed on the membrane with primary antibodies (mouse anti-MYLK4 antibody (1:1,000, Cat. NO. SAB1412951) and mouse anti-GAPDH antibody (1:1,000, Cat. NO. G8795)), wherein GAPDH was used as a loading control. […]"}
{"molecule": "C[C@@H]1C[C@H]2[C@@H]3CCC4=CC(=O)C=C[C@]4(C)[C@@]3(F)[C@@H](O)C[C@]2(C)[C@@]1(O)C(=O)CO", "note": "[dexamethasone]", "values": [{"measurement": "expression level of MYLK-4", "result": "higher than that of normal HTM cells"}]}
